Assay results as given in PMC9920413, “New Bicyclic Pyridine-Based Hybrids Linked to the 1,2,3-Triazole Unit: Synthesis via Click Reaction and Evaluation of Neurotropic Activity and Molecular Docking” (Molecules, 2023).

Experiments:
mouse = test: Elevated plus maze (EPM) test; assay type: in vivo; details: 5 min
Summary of the method: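 Mice dosed intraperitoneally with compound or reference before testing, controls receiving emulsifier. Anxiolytic effect scored as increased entries into and time in open arms without raised total motor activity; closed-arm time and center-entry attempts also recorded; significance at p < 0.05.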

[1] = test system: pentylenetetrazole (PTZ)-induced convulsions; test: Antagonism to pentylenetetrazole (PTZ) convulsions; assay type: in vivo
Summary of the method: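 Outbred mice (18–22 g), six per dose, given compound or emulsifier vehicle; clonic seizures and convulsions after PTZ recorded over 1 h observation. ED50 derived by the Litchfield–Wilcoxon method.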

mice [2] = test: Rotating rod test (neurotoxicity, myorelaxation); assay type: in vivo; details: i.p., myorelaxation in 50% of animals
Summary of the method: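 Compounds given i.p. at 50 to 500 mg/kg; mice placed on a rubber-coated rod rotating at 5 rpm, counting animals unable to stay on for 2 min. TD50 derived by the Litchfield–Wilcoxon method.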

[3] = test system: thiosemicarbazide (TSC)-induced convulsions; test: Thiosemicarbazide (TSC) seizures; assay type: in vivo, mice
Summary of the method: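 Mice received compounds 100 mg/kg i.p. in carboxymethylcellulose/Tween-80 suspension 45 min before thiosemicarbazide 18 mg/kg s.c. (0.5% solution). Anti-TSC activity judged by latency to onset of clonic seizures.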

[4] = test system: maximal electroshock-induced seizures; test: Maximal electroshock-induced seizures (MES); assay type: in vivo; details: mice, MES 50 mA, 0.2 s
Method: The study of the anticonvulsant activity of hybrids 7a–u was assessed by evaluating the antagonism to pentylenetetrazole (PTZ), thiosemicarbazide convulsive seizures, and maximal electroshock-induced seizures (MES). The PTZ-induced test is considered an experimental model for the clonic component of epilepsy seizures and the prognostic anxiolytic activity of the compounds. PTZ is a common convulsive agent used in animal models to investigate the mechanisms of seizures. The model of thiosemicarbazide (TSC) seizures (affecting the exchange of GABA) causes clonic seizures similar to pentylenetetrazole ones. The MES test is used as an animal model for the generalization of tonic seizures in epilepsy. The neurotoxicity and side effects of the compounds (movement coordination disorder, myorelaxation, and ataxia) were also studied on mice with the “rotating rod”[29] test.
The anticonvulsant effect of the newly synthesized compounds was investigated by tests comprising pentylenetetrazole, thiosemicarbazide convulsions, and maximal electroshock (MES). Outbred mice (weight 18–22 g) were used for the study. […] Seizures and clonic convulsions were recorded. […]
The MES test is used as an animal model for the generalized tonic seizures of epilepsy. […] The anticonvulsant properties of compounds were assessed by their prevention of the tonic-extensor phase of convulsions.

in vivo = details: outbred, mouse, in vivo; mice, dead animals after 24 h
Summary of the method: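 Compounds are given intraperitoneally to mice at 50 to 500 mg/kg, with reference drugs at anticonvulsant doses. Muscle relaxation is scored on a rod rotating at 5 rpm as the number of animals unable to stay on for 2 min. ED50, TD50 and LD50 come from the Litchfield and Wilcoxon method.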

mice [5] = test: Forced swimming test; details: 6 min;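 note: mice made to swim in a water-filled glass vessel under natural light, with durations of active swimming and immobility recorded across the 6 min session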
Method: Forced swimming test. To assess “despair and depression”, the “compelling swimming” model was used. Experimental animals were forced to swim in a glass container (height 22 cm, diameter 14 cm), filled 1/3 with water. […] The latent period of immobilization, the total duration of active swimming and immobilization are fixed at 6 min (the experiments were conducted under natural light).

rats [6] = test: Open field test; assay type: in vivo
Summary of the method: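 Rats observed for 5 min in a modified open field whose floor is divided into squares with holes, in daytime under natural light. Horizontal movements, rearing and hole sniffing were counted; eight animals per compound, control and reference drug.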

rats [7] = test: Electroshock retrograde amnesia, conditioned response of passive avoidance (CRPA); assay type: in vivo
Summary of the method: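 Rats trained in light/dark passive avoidance with a single 0.4 mA foot shock in the dark compartment, then given maximal electroconvulsive shock (50 Hz, 0.2 s, corneal) immediately after to induce amnesia. Retention tested 24 h later; antiamnesic effect read as increased time in the light compartment versus controls.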

[8] = Mus musculus, read-out: Latency of Convulsions, Induced by TSC, I (index of latent period of TSC seizures)

Question: For `CCC1(C)CC(=O)NC1=O` (stereo not drawn) [Ethosuximide, ethosuximide, reference compound], which “Number of Entries into the Closed Arms” value (mouse; 200 mg/kg) is on record?
Answer: 8.1 ± 2.5

Question: And the “Time Spent in Closed Arms” value (mouse; 200 mg/kg)?
Answer: 247.2 ± 27.6 s

Question: And the “Time Spent in the Center” value (mouse; 200 mg/kg)?
Answer: 52.8 ± 4.7 s

Question: What about the TI ([1]; outbred, mouse, in vivo) of the same molecule?
Answer: 8.5

Question: And the TD50 (mice [2])?
Answer: 520 (413 ÷ 655) mg/kg

Question: What about the response vs control in vivo at 200 mg/kg [3, 8] of the same molecule?
Answer: 170%

Question: What about the “Latency of Convulsions, Induced by TSC, M ± M” value ([3]; mice, ethosuximide 200 mg/kg) of the same molecule?
Answer: 17.0 ± 1.4 min

Question: And the “anticonvulsant effect in the MES test (protection from tonic and clonic seizures)” value [4]?
Answer: did not exhibit an anticonvulsant effect

Question: What about the LD50 at 24 h (in vivo) of the same molecule?
Answer: 1320 mg/kg

Question: And the “Total Time of Active Swimming” value (mice [5]; 200 mg/kg)?
Answer: 262 ± 25.0 s

Question: And the “Total Time of Immobilization” value (mice [5]; 200 mg/kg)?
Answer: 98.0 ± 9.2 s

Question: And the “Cells Examination, amount (absolute data during 5 min)” value (rats [6]; 200 mg/kg)?
Answer: 0.6 ± 0.5

Question: And the “Horizontal Displacement, amount (absolute data during 5 min)” value (rats [6]; 200 mg/kg)?
Answer: 26.8 ± 5.51

Question: What about the “Vertical Displacement, amount (absolute data during 5 min)” value (rats [6]; 200 mg/kg) of the same molecule?
Answer: 5.6 ± 1.8

Question: With `CCCc1nc(OCc2cn(CC(=O)N3CCN(c4nc(C)c5c(c4C#N)CC(C)(C)OC5)CC3)nn2)c(C#N)c2c1COC(C)(C)C2` [7s, 6-{4-[(4-{[(5-Cyano-3,3-dimethyl-8-propyl-3,4-dihydro-1H-pyrano [3,4-c]pyridin-6-yl)oxy]methyl}-1H-1,2,3-triazol-1-yl)acetyl]piperazin-1-yl}-3,3,8-trimethyl-3,4-dihydro-1H-pyrano [3,4-c]pyridine-5-carbonitrile] as the molecule, how does the melting point read?
Answer: 192 to 194 °C

Question: Which “Number of Entries into the Closed Arms” value (mouse; 2 mg/kg) does the source give for `CN1C(=O)CN=C(c2ccccc2)c2cc(Cl)ccc21` [Diazepam, diazepam, reference compound] here?
Answer: 5.5 ± 1.1

Question: And the “Time Spent in Closed Arms” value (mouse; 2 mg/kg)?
Answer: 257.5 ± 25.2 s

Question: What about the “Time Spent in the Center” value (mouse; 2 mg/kg) of the same molecule?
Answer: 42.5 ± 3.9 s

Question: What about the “Time Spent in the Open Arms” value (mouse; 2 mg/kg) of the same molecule?
Answer: 57.0 ± 4.2 s

Question: And the ED50 ([1]; Mus musculus, read-out: ED50 (by PTZ antagonism))?
Answer: 0.5 mg/kg

Question: What about the TI ([1]; therapeutic index TI = LD50/ED50) of the same molecule?
Answer: 360

Question: What about the response vs control in vivo at 2 mg/kg [3, 8] of the same molecule?
Answer: 90%

Question: What about the “Latency of Convulsions, Induced by TSC, M ± M” value ([3]; mice, diazepam 2 mg/kg) of the same molecule?
Answer: 9.0 ± 2.5 min

Question: And the “effect on the model of thiosemicarbazide (TSC) seizures, in words” value ([3]; mice, diazepam 2 mg/kg)?
Answer: not effective

Question: What about the “anticonvulsant effect in the MES test (protection from tonic and clonic seizures)” value [4] of the same molecule?
Answer: did not exhibit an anticonvulsant effect

Question: And the “Total Time of Active Swimming” value (mice [5]; 2 mg/kg)?
Answer: 336.0 ± 8.1 s

Question: And the “Total Time of Immobilization” value (mice [5]; 2 mg/kg)?
Answer: 24.0 ± 8.2 s

Question: What about the “The Time Spent in the Light Chamber When Playing CRPA + MESH after 24 h, Second Day” value (rats [7]; 2 mg/kg, study for 5 min) of the same molecule?
Answer: 126.0 ± 6.5 s

Question: And the “The Time Spent in the Light Chamber during the Training of the CRPA, First Day” value (rats [7]; 2 mg/kg, study for 5 min)?
Answer: 187.0 ± 6.7 s

Question: And the “antiamnestic effect, in words” value (rats [7]; electroshock retrograde amnesia, CRPA)?
Answer: did not have an antiamnestic effect

Question: What about the “Cells Examination, amount (absolute data during 5 min)” value (rats [6]; 2 mg/kg) of the same molecule?
Answer: 5.0 ±1.2

Question: And the “Horizontal Displacement, amount (absolute data during 5 min)” value (rats [6]; 2 mg/kg)?
Answer: 33.6 ± 6.1

Question: What about the “Vertical Displacement, amount (absolute data during 5 min)” value (rats [6]; 2 mg/kg) of the same molecule?
Answer: 6.4 ± 1.4
